Values of other authors in patent US7863277B1, “Topical antipsychotic composition” (Medcara, L.L.C., priority 2005, dated 2011).

Conditions: decreasing absorption when not taken concurrently with food

Oral bioavailability: about 60%
Compound: O=C1Cc2cc(CCN3CCN(c4nsc5ccccc45)CC3)c(Cl)cc2N1 [ziprasidone, 5-(2-(4-(1,2-benzisothiazol-3-yl)piperazinyl)ethyl)-6-chloro-1,3-dihydro-2(1H)-indole-2-one]
